Results: article PMC7644958, “Estimates of RelSeq, Mesh1, and SAHMex Hydrolysis of (p)ppGpp and (p)ppApp by Thin Layer Chromatography and NADP/NADH Coupled Assays” (Frontiers in Microbiology, 2020)

Biological target: T1, MESH1 (Homo sapiens, UniProt Q8N4P3)
T1 construct: gene HDDC3; pET28 derivative, expressed in E. coli BL21(lambda DE3); His-tag removed with thrombin
Test: TLC hydrolysis assay (PEI-cellulose)
Format: biochemical
Conditions: 5 mM substrate, pH 8.0, 37°C, 250 mM NaCl, 14 mM MgCl2, 6.5 mM MnCl2

T1 sequence (Q8N4P3 whole entry): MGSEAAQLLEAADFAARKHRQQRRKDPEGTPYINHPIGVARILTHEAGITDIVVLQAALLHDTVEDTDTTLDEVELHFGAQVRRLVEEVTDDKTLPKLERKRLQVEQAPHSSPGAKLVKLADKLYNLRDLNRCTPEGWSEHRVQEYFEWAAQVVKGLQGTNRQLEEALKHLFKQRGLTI

| SMILES | TLC hydrolysis assay (PEI-cellulose) |
| --- | --- |
| Nc1ncnc2c1ncn2[C@@H]1O[C@H](COP(=O)(O)OP(=O)(O)OP(=O)(O)O)[C@@H](OP(=O)(O)OP(=O)(O)O)[C@H]1O [pppApp] | The human MESH1 hydrolase displays similar activities as shown for Drosophila Mesh1 |
| Nc1ncnc2c1ncn2[C@@H]1O[C@H](COP(=O)(O)OP(=O)(O)O)[C@@H](OP(=O)(O)OP(=O)(O)O)[C@H]1O [ppApp] | The human MESH1 hydrolase displays similar activities as shown for Drosophila Mesh1 |
